Read-outs that look alike come from different tables or passages of the source.
Legend:
[1] = target: SERT (Rattus norvegicus, UniProt P31652); assay: Radioligand binding assay for SERT, displacement of [3H]1; details: for Ki(NET)/Ki (SERT): selectivity ratio
[2] = target: hSERT WT (Homo sapiens, UniProt P31645)
[3] = target: NET (Rattus norvegicus, UniProt Q9WTR4); assay: Radioligand binding assay for NET, displacement of [3H]nisoxetine
[4] = 30 µM compound, 18°C, COS-7 membranes, hSERT WT
[5] = 30 µM compound, extrapolated from 24°C with the temperature factor of S-1

Sequence of SERT (P31652 whole entry): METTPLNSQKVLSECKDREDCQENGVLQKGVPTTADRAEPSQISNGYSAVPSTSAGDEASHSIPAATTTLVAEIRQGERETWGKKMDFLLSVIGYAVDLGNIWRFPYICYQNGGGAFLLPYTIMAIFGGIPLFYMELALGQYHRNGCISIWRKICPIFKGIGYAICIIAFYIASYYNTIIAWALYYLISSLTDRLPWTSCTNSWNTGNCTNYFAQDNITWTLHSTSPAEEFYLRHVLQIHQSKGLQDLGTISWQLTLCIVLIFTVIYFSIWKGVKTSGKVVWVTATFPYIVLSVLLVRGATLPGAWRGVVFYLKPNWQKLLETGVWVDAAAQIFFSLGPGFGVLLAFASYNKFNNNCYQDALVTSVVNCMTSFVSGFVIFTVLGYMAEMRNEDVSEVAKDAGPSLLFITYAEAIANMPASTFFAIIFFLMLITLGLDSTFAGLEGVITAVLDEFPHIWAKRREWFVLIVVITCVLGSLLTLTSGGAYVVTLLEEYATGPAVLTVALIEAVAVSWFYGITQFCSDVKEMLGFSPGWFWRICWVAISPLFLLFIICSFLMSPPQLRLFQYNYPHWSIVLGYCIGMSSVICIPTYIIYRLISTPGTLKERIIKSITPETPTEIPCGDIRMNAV
Sequence of hSERT WT (P31645 whole entry): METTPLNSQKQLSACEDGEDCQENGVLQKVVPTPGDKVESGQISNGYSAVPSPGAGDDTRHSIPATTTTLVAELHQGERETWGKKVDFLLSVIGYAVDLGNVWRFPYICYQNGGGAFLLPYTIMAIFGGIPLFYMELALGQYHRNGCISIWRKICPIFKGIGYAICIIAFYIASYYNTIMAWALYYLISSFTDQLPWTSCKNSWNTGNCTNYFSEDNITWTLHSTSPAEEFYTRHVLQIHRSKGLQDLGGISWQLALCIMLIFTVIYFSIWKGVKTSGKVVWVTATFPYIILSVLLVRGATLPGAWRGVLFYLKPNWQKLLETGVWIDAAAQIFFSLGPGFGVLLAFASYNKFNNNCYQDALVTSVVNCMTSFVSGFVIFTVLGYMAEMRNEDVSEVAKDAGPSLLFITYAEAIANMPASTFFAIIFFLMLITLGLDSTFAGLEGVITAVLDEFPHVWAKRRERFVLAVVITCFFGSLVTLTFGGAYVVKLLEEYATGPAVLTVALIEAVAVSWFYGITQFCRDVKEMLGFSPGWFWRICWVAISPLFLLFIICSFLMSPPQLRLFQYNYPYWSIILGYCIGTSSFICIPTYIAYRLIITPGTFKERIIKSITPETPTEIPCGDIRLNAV
Sequence of NET (Q9WTR4 1-597): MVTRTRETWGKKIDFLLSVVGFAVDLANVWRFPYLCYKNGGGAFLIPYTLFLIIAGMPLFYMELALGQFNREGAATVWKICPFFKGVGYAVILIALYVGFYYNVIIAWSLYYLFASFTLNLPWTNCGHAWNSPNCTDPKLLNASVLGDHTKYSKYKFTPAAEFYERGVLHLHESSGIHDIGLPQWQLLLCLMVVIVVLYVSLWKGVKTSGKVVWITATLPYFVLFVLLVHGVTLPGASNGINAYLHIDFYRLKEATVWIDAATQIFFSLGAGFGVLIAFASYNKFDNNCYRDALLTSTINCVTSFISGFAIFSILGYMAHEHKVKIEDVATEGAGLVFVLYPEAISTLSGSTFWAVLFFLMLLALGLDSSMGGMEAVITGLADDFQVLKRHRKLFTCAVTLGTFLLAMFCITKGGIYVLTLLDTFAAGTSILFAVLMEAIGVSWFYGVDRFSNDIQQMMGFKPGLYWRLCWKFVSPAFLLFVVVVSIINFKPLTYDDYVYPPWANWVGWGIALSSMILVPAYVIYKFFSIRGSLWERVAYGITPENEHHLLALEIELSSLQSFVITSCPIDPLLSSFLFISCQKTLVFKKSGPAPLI

Row | Compound | [3H] S-1 dissoc. t½ (min) at 18°C [2] | [3H] S-1 dissoc. t½ (min) at 18°C [2, 4] | further results
1 | CN(CCCC1(c2ccc(F)cc2)OCc2cc(C#N)ccc21)Cc1ccc2c(c1)Cc1ccccc1-2 (stereo not drawn) [Compound 50, 1-(3-(((9H-Fluoren-2-yl)methyl)(methyl)amino)propyl)-1-(4-fluorophenyl)-1,3-dihydroisobenzofuran-5-carbonitrile] | – | – | Ki(NET)/Ki (SERT) ([1]; Table 3): >100
2 | CN(C)CCCC1(c2ccc(F)cc2)OCc2cc(CN3CCN(c4ccccc4)CC3)ccc21 (stereo not drawn) [Compound 8, 3-(1-(4-Fluorophenyl)-5-((4-phenylpiperazin-1-yl)methyl)-1,3-dihydroisobenzofuran-1-yl)-N,N-dimethylpropan-1-amine] | 16.4 ± 0.3 min | – | –
3 | CN(C)CCCC1(c2ccc(F)cc2)OCc2cc(CN)ccc21 (stereo not drawn) [Compound 5, 3-(5-(Aminomethyl)-1-(4-fluorophenyl)-1,3-dihydroisobenzofuran-1-yl)-N,N-dimethylpropan-1-amine] | – | 17.4 ± 0.8 min | –
4 | CN(C)CCCC(O)(c1ccc(Br)cc1)c1ccc(C#N)cc1CO (stereo not drawn) [Compound 24, 4-(1-(4-Bromophenyl)-4-(dimethylamino)-1-hydroxybutyl)-3-(hydroxymethyl)benzonitrile] | – | 24.7 ± 5.4 min | –
5 | CN(CCCC1(c2ccc(F)cc2)OCc2cc(C#N)ccc21)Cc1ccc(N(C)C)cc1 (stereo not drawn) [Compound 46, 1-(3-((4-(Dimethylamino)benzyl)(methyl)amino)propyl)-1-(4-fluorophenyl)-1,3-dihydroisobenzofuran-5-carbonitrile] | 41.2 ± 2.8 min | – | –
6 | CN(C)CCCC1(c2ccc(F)cc2)OCc2c(I)cccc21 (stereo not drawn) [Compound 22, 3-(1-(4-Fluorophenyl)-4-iodo-1,3-dihydroisobenzofuran-1-yl)-N,N-dimethylpropan-1-amine] | 33.2 ± 5.8 min | – | –
7 | CNCCCC1(c2ccc(F)cc2)OCc2cc(C#N)ccc21 (stereo not drawn) [Compound 38, 1-(4-Fluorophenyl)-1-(3-(methylamino)propyl)-1,3-dihydroisobenzofuran-5-carbonitrile] | – | – | Ki [1]: 5.04 ± 0.176 nM; Ki(NET)/Ki (SERT) ([1]; Table 3): 174.6; Ki [3]: 880 ± 12.4 nM
8 | CN(C)CCCC1(c2ccc(F)cc2)OCc2cc(/C=C/c3ccccc3)ccc21 (single isomer, unassigned; (+)) [(+)62] | – | – | 24°C dissociation t½ calculated to a t½ at 18°C [2]: 132.3 ± 8.5 min; [3H] S-1 dissoc. t½ (min) at 24°C ([2]; 30 µM compound, 24°C, COS-7 membranes, hSERT WT): 54.9 ± 3.5 min
9 | CN(C)CCCC1(c2ccc(F)cc2)OCc2cc(I)ccc21 (stereo not drawn) [Compound 63] | – | 34.4 ± 6.6 min | –
10 | CN(CCCC1(c2ccc(F)cc2)OCc2cc(C#N)ccc21)C1CC=C(c2c[nH]c3ccccc23)CC1 (stereo not drawn) [Compound 60, 1-(3-((4-(1H-Indol-3-yl)cyclohex-3-en-1-yl)(methyl)amino)propyl)-1-(4-fluorophenyl)-1,3-dihydroisobenzofuran-5-carbonitrile] | 52.0 ± 7.6 min | – | –
11 | CN(CCCC1(c2ccc(F)cc2)OCc2cc(C#N)ccc21)Cc1ccnc2ccccc12 (stereo not drawn) [Compound 48, 1-(4-Fluorophenyl)-1-(3-(methyl(quinolin-4-ylmethyl)amino)propyl)-1,3-dihydroisobenzofuran-5-carbonitrile] | – | 29.0 ± 1.3 min | –
12 | CN(C)CCCC1(c2ccc(F)cc2)OCc2cc(-c3ccc([N+](=O)[O-])cc3)ccc21 (stereo not drawn) [Compound 19, 3-(1-(4-Fluorophenyl)-5-(4-nitrophenyl)-1,3-dihydroisobenzofuran-1-yl)-N,N-dimethylpropan-1-amine] | – | – | [3H] S-1 dissoc. t½ (min) at 24°C [2]: 40.2 ± 7.0 min; 24°C dissociation t½ calculated to a t½ at 18°C [2, 5]: 97 ± 17 min
13 | CN(C)CCCC1(c2ccc(F)cc2)OCc2cc(CNCc3ccc4ccccc4c3)ccc21 (stereo not drawn) [Compound 13, 3-(1-(4-Fluorophenyl)-5-(((naphthalen-2-ylmethyl)amino)methyl)-1,3-dihydroisobenzofuran-1-yl)-N,N-dimethylpropan-1-amine] | 22.1 ± 1.5 min | – | –
14 | CN(CCCC1(c2ccc(F)cc2)OCc2cc(C#N)ccc21)Cc1ccc2ccccc2c1 (stereo not drawn) [Compound 49, 1-(4-Fluorophenyl)-1-(3-(methyl(naphthalen-2-ylmethyl)amino)propyl)-1,3-dihydroisobenzofuran-5-carbonitrile] | 60.1 ± 1.0 min | – | –
15 | CN(C)CCCC1(c2ccc(F)cc2)OCc2cc(CNCc3ccc4c(c3)Cc3ccccc3-4)ccc21 (stereo not drawn) [Compound 14, 3-(5-((((9H-Fluoren-2-yl)methyl)amino)methyl)-1-(4-fluorophenyl)-1,3-dihydroisobenzofuran-1-yl)-N,N-dimethylpropan-1-amine] | 11.4 ± 0.2 min | – | –
16 | CN(CCCC1(c2ccc(F)cc2)OCc2cc(C#N)ccc21)Cc1csc2ccccc12 (stereo not drawn) [Compound 45, 1-(3-((Benzo[b]thiophen-3-yl-methyl)(methyl)amino)propyl)-1-(4-fluorophenyl)-1,3-dihydroisobenzofuran-5-carbonitrile] | – | 59.6 ± 1.0 min | –
17 | COc1ccccc1N1CCN(Cc2ccc3c(c2)COC3(CCCN(C)C)c2ccc(F)cc2)CC1 (stereo not drawn) [Compound 9, 3-(1-(4-Fluorophenyl)-5-((4-(2-methoxyphenyl)piperazin-1-yl)methyl)-1,3-dihydroisobenzofuran-1-yl)-N,N-dimethylpropan-1-amine] | – | 16.3 ± 0.1 min | –
18 | CN(C)CCCC1(c2ccc(F)cc2)OCc2cc(CN3CCN(c4cccc(Cl)c4Cl)CC3)ccc21 (stereo not drawn) [Compound 10, 3-(5-((4-(2,3-Dichlorophenyl)piperazin-1-yl)methyl)-1-(4-fluorophenyl)-1,3-dihydroisobenzofuran-1-yl)-N,N-dimethylpropan-1-amine] | – | 24.8 ± 1.1 min | –
19 | CN(C)CCCC1(c2ccc(F)cc2)OCc2cc(/C=C/c3ccccc3)ccc21 (single isomer, unassigned; (-)) [(−)62] | – | 37.3 ± 9.5 min | –
20 | CN(C)CCCC1(c2ccc(F)cc2)OCc2cc(/C=C/Cc3ccccc3)ccc21 (stereo not drawn) [Compound 21, (E)-3-(1-(4-Fluorophenyl)-5-(3-phenylprop-1-en-1-yl)-1,3-dihydroisobenzofuran-1-yl)-N,N-dimethylpropan-1-amine] | 23.1 ± 2.9 min | – | –
21 | CN(C)CCCC1(c2ccc(F)cc2)OCc2cc(Br)ccc21 (stereo not drawn) [Compound 17] | – | – | Ki(NET)/Ki (SERT) ([1]; Table 1): >10,000; Ki [3]: 28400 nM
22 | CN(C)CCCC1(c2ccc(F)cc2)OCc2cc(-c3cccc(N)c3)ccc21 (stereo not drawn) [Compound 61] | – | 43.1 ± 6.2 min | –
23 | CN(C)CCCC1(c2ccc(F)cc2)OCc2cc(CNCc3ccc4c(c3)COC4(CCCN(C)C)c3ccc(F)cc3)ccc21 (stereo not drawn) [Compound 15, 3-(5-((((1-(3-(Dimethylamino)propyl)-1-(4-fluorophenyl)-1,3-dihydroisobenzofuran-5-yl)methyl)amino)methyl)-1-(4-fluorophenyl)-1,3-dihydroisobenzofuran-1-yl)-N,N-dimethylpropan-1-amine] | – | 21.4 ± 0.3 min | –
24 | CN(CCCC1(c2ccc(F)cc2)OCc2cc(C#N)ccc21)CCc1ccccc1 (stereo not drawn) [Compound 42, 1-(4-Fluorophenyl)-1-(3-(methyl(phenethyl)amino)propyl)-1,3-dihydroisobenzofuran-5-carbonitrile] | – | – | [3H] S-1 dissoc. t½ (min) at 24°C [2]: 45.4 ± 5.9 min; 24°C dissociation t½ calculated to a t½ at 18°C [2, 5]: 110 ± 14 min

From publication PMC3894853 (Journal of medicinal chemistry, 2013)
